Assay results reported in patent US8765749B2, “1,6-disubstituted indole compounds as protein kinase inhibitors” (Korea Institute of Science and Technology, priority 2009, dated 2014).

Test system: A375P cells
Experiment: Inhibition activity against proliferation of A375P melanoma cells (MTT assay)
Conditions: Homo sapiens, read-out: Inhibition activity against proliferation of A375P cells (GI50, μM)

GI50, < 10 µM:
Nc1cc(-n2ccc3ccc(-c4cccc(NC(=O)Nc5ccc(Cl)c(Cl)c5)c4)cc32)ncn1 [Example 4, 1-(3-(1-(6-aminopyrimidin-4-yl)-1H-indol-6-yl)phenyl)-3-(3,4-dichlorophenyl)urea]
Nc1cc(-n2ccc3ccc(-c4cccc(NC(=O)c5ccc(-c6cc(C(F)(F)F)ccc6Cl)o5)c4)cc32)ncn1 [Example 11]
COc1ccccc1NC(=O)Nc1ccc(C)c(-c2ccc3ccn(-c4cc(NC(=O)C5CC5)ncn4)c3c2)c1 [Example 35, N-(6-(6-(5-(3-(2-methoxyphenyl)ureido)-2-methylphenyl)-1H-indol-1-yl)pyrimidin-4-yl)cyclopropanecarboxamide]
Cc1ccc(S(=O)(=O)Nc2cccc(-c3ccc4ccn(-c5cc(N)ncn5)c4c3)c2)cc1 [Example 20, N-(3-(1-(6-aminopyrimidin-4-yl)-1H-indol-6-yl)phenyl)-4-methylbenzenesulfonamide]
O=C(Nc1cccc(-c2ccc3ccn(-c4ncnc5[nH]ccc45)c3c2)c1)c1ccc(Cl)c(C(F)(F)F)c1 [Example 37, N-(3-(1-(7H-pyrrolo[2,3-d]pyrimidin-4-yl)-1H-indol-6-yl)phenyl)-4-chloro-3-(trifluoromethyl)benzamide]
O=C(Nc1cccc(-c2ccc3ccn(-c4cc(NC(=O)C5CC5)ncn4)c3c2)c1)c1cc(N2CCOCC2)cc(C(F)(F)F)c1 [Example 31, N-(3-(1-(6-(cyclopropanecarboxamido)pyrimidin-4-yl)-1H-indol-6-yl)phenyl)-3-morpholino-5-(trifluoromethyl)benzamide]
CN1CCC(Oc2ccc(C(=O)Nc3cccc(-c4ccc5ccn(-c6cc(N)ncn6)c5c4)c3)cc2C(F)(F)F)CC1 [Example 19, N-(3-(1-(6-aminopyrimidin-4-yl)-1H-indol-6-yl)phenyl)-4-(1-methylpiperidin-4-yloxy)-3-(trifluoromethyl)benzamide]
COc1ccc(-c2ccc(C(=O)Nc3cccc(-c4ccc5ccn(-c6cc(N)ncn6)c5c4)c3)o2)cc1 [Example 10, N-(3-(1-(6-aminopyrimidin-4-yl)-1H-indol-6-yl)phenyl)-5-(4-methoxyphenyl)furan-2-carboxamide]
O=C(Nc1cccc(-c2ccc3ccn(-c4cc(NC(=O)C5CC5)ncn4)c3c2)c1)NC1CCCCC1 [Example 29, N-(6-(6-(3-(3-cyclohexylureido)phenyl)-1H-indol-1-yl)pyrimidin-4-yl)cyclopropanecarboxamide]
Nc1cc(-n2ccc3ccc(-c4cccc(NC(=O)Nc5ccccc5F)c4)cc32)ncn1 [Example 3, 1-(3-(1-(6-aminopyrimidin-4-yl)-1H-indol-6-yl)phenyl)-3-(2-fluorophenyl)urea]
O=C(Nc1cccc(-c2ccc3ccn(-c4cc(NC(=O)C5CC5)ncn4)c3c2)c1)c1ccc(Cl)c(C(F)(F)F)c1 [Example 30, 4-chloro-N-(3-(1-(6-(cyclopropanecarboxamido)pyrimidin-4-yl)-1H-indol-6-yl)phenyl)-3-(trifluoromethyl)benzamide]
O=C(Nc1cccc(-c2ccc3ccn(-c4cc(NC(=O)C5CC5)ncn4)c3c2)c1)Nc1ccccc1F [Example 27, N-(6-(6-(3-(3-(2-fluorophenyl)ureido)phenyl)-1H-indol-1-yl)pyrimidin-4-yl)cyclopropanecarboxamide]
Nc1cc(-n2ccc3ccc(-c4cccc(NC(=O)c5cscn5)c4)cc32)ncn1 [Example 15, N-(3-(1-(6-aminopyrimidin-4-yl)-1H-indol-6-yl)phenyl)thiazol-4-carboxamide]
Cc1cc(C(=O)Nc2cccc(-c3ccc4ccn(-c5cc(N)ncn5)c4c3)c2)c(C)o1 [Example 12, N-(3-(1-(6-aminopyrimidin-4-yl)-1H-indol-6-yl)phenyl)-2,5-dimethylfuran-3-carboxamide]
